Test results as given in ChEMBL document CHEMBL2413072, “Synthesis and in vitro anticancer studies of novel C-2 arylidene congeners of lantadenes” (2013).

Experiments:
Assay type in all cases: functional
HCT-116 = assay: Growth inhibition of human HCT116 cells by sulforhodamine B assay
NCI-H522 = assay: Growth inhibition of human NCI-H522 cells by sulforhodamine B assay
NCI-H460 = assay: Growth inhibition of human NCI-H460 cells by sulforhodamine B assay
NCI-H226 [1] = assay: Growth inhibition of human NCI-H226 cells by sulforhodamine B assay
HOP-62 = assay: Growth inhibition of human HOP62 cells by sulforhodamine B assay
A549 = assay: Growth inhibition of human A549/ATCC cells by sulforhodamine B assay
SNB-19 = assay: Growth inhibition of human SNB19 cells assessed as cell growth at 10^-8 M by sulforhodamine B assay; settings: read-out: Activity
SF-539 = assay: Growth inhibition of human SF539 cells assessed as cell growth at 10^-8 M by sulforhodamine B assay; settings: read-out: Activity
NCI-H322M = assay: Growth inhibition of human NCI-H322M cells assessed as cell growth at 10^-8 M by sulforhodamine B assay; settings: read-out: Activity
RXF 393 [2] = assay: Growth inhibition of human RXF393 cells by sulforhodamine B assay
CAKI-1 = assay: Growth inhibition of human CAKI-1 cells by sulforhodamine B assay
A498 [3] = assay: Growth inhibition of human A498 cells by sulforhodamine B assay
UACC-62 [4] = assay: Growth inhibition of human UACC62 cells by sulforhodamine B assay
SF-295 = assay: Growth inhibition of human SF295 cells by sulforhodamine B assay
MDA-MB-231 = assay: Growth inhibition of human MDA-MB-231 cells assessed as cell growth at 10^-4 M by sulforhodamine B assay; settings: read-out: Activity
UO-31 = assay: Growth inhibition of human UO31 cells assessed as cell growth at 10^-4 M by sulforhodamine B assay; settings: read-out: Activity
OVCAR-4 = assay: Growth inhibition of human OVCAR4 cells assessed as cell growth at 10^-4 M by sulforhodamine B assay; settings: read-out: Activity
IGROV-1 = assay: Growth inhibition of human IGROV1 cells assessed as cell growth at 10^-4 M by sulforhodamine B assay; settings: read-out: Activity
UACC-62 [5] = assay: Growth inhibition of human UACC62 cells assessed as cell growth at 10^-4 M by sulforhodamine B assay; settings: read-out: Activity
UACC-257 [6] = assay: Growth inhibition of human UACC257 cells assessed as cell growth at 10^-4 M by sulforhodamine B assay; settings: read-out: Activity
SK-MEL-5 = assay: Growth inhibition of human SK-MEL-5 cells assessed as cell growth at 10^-4 M by sulforhodamine B assay; settings: read-out: Activity
SK-MEL-28 [7] = assay: Growth inhibition of human SK-MEL-28 cells assessed as cell growth at 10^-4 M by sulforhodamine B assay; settings: read-out: Activity
Malme-3M [8] = assay: Growth inhibition of human MALME-3M cells assessed as cell growth at 10^-4 M by sulforhodamine B assay; settings: read-out: Activity
NCI-H226 [9] = assay: Growth inhibition of human NCI-H226 cells assessed as cell growth at 10^-4 M by sulforhodamine B assay; settings: read-out: Activity
SR = assay: Growth inhibition of human SR cells assessed as cell growth at 10^-4 M by sulforhodamine B assay; settings: read-out: Activity
A498 [10] = assay: Growth inhibition of human A498 cells assessed as cell growth at 10^-6 M by sulforhodamine B assay; settings: read-out: Activity
OVCAR-8 = assay: Growth inhibition of human OVCAR8 cells assessed as cell growth at 10^-6 M by sulforhodamine B assay; settings: read-out: Activity
UACC-257 [11] = assay: Growth inhibition of human UACC257 cells assessed as cell growth at 10^-6 M by sulforhodamine B assay; settings: read-out: Activity
MDA-MB-435 = assay: Growth inhibition of human MDA-MB-435 cells assessed as cell growth at 10^-6 M by sulforhodamine B assay; settings: read-out: Activity
Malme-3M [12] = assay: Growth inhibition of human MALME-3M cells assessed as cell growth at 10^-6 M by sulforhodamine B assay; settings: read-out: Activity
HT-29 = assay: Growth inhibition of human HT-29 cells assessed as cell growth at 10^-6 M by sulforhodamine B assay; settings: read-out: Activity
OVCAR-5 = assay: Growth inhibition of human OVCAR5 cells assessed as cell growth at 10^-7 M by sulforhodamine B assay; settings: read-out: Activity
OVCAR-3 = assay: Growth inhibition of human OVCAR3 cells assessed as cell growth at 10^-7 M by sulforhodamine B assay; settings: read-out: Activity
SK-MEL-28 [13] = assay: Growth inhibition of human SK-MEL-28 cells assessed as cell growth at 10^-7 M by sulforhodamine B assay; settings: read-out: Activity
U-251 = assay: Growth inhibition of human U251 cells assessed as cell growth at 10^-7 M by sulforhodamine B assay; settings: read-out: Activity
TK-10 = assay: Growth inhibition of human TK10 cells assessed as cell growth at 10^-8 M by sulforhodamine B assay; settings: read-out: Activity
RXF 393 [14] = assay: Growth inhibition of human RXF393 cells assessed as cell growth at 10^-8 M by sulforhodamine B assay; settings: read-out: Activity
[15] = read-out: LC50 (the source's name)
[16] = read-out: pLC50 (the source's name) (converted)

Question: Which results are given for `CC(C)=CC(=O)O[C@@H]1CC(C)(C)C[C@H]2C3=CC[C@@H]4[C@@]5(C)CC[C@H](O)C(C)(C)[C@@H]5CC[C@@]4(C)[C@]3(C)CC[C@@]12C(=O)O` [Reduced Lantadene B]?
Answer: GI50 (HCT-116; read-out: GI50): 2.67 µM; LC50 (HCT-116; read-out: LC50): 50.2 µM; TGI (HCT-116; read-out: TGI): 15.9 µM; GI50 (HCT-116; read-out: pGI50 (converted)): 2.69 µM; LC50 (HCT-116; read-out: pLC50 (converted)): 50.1 µM; TGI (HCT-116; read-out: pTGI (converted)): 15.8 µM; GI50 (NCI-H522; read-out: GI50): 4.22 µM; CC50 (NCI-H522; [15]): 71.3 µM; TGI (NCI-H522; read-out: TGI): 21.8 µM; GI50 (NCI-H522; read-out: pGI50 (converted)): 4.17 µM; CC50 (NCI-H522; [16]): 70.8 µM; TGI (NCI-H522; read-out: pTGI (converted)): 21.9 µM; GI50 (NCI-H460; read-out: GI50): 3.07 µM; LC50 (NCI-H460; read-out: LC50): > 100 µM; TGI (NCI-H460; read-out: TGI): 66.8 µM; GI50 (NCI-H460; read-out: pGI50 (converted)): 3.09 µM; LC50 (NCI-H460; read-out: pLC50 (converted)): > 100 µM; TGI (NCI-H460; read-out: pTGI (converted)): 66.1 µM; GI50 (NCI-H226 [1]; read-out: GI50): 5.09 µM; LC50 (NCI-H226 [1]; read-out: LC50): 86 µM; TGI (NCI-H226 [1]; read-out: TGI): 24.2 µM; GI50 (NCI-H226 [1]; read-out: pGI50 (converted)): 5.13 µM; LC50 (NCI-H226 [1]; read-out: pLC50 (converted)): 85.1 µM; TGI (NCI-H226 [1]; read-out: pTGI (converted)): 24 µM; GI50 (HOP-62; read-out: GI50): 7.47 µM; LC50 (concentration killing 50% of cells) (HOP-62; read-out: LC50): 79.8 µM; TGI (HOP-62; read-out: TGI): 26.6 µM; GI50 (HOP-62; read-out: pGI50 (converted)): 7.41 µM; LC50 (concentration killing 50% of cells) (HOP-62; read-out: pLC50 (converted)): 79.4 µM; TGI (HOP-62; read-out: pTGI (converted)): 26.3 µM; GI50 (A549; read-out: GI50): 0.438 µM; CC50 (A549; [15]): 82.4 µM; TGI (A549; read-out: TGI): 14.9 µM; GI50 (A549; read-out: pGI50 (converted)): 0.437 µM; CC50 (A549; [16]): 83.2 µM; TGI (A549; read-out: pTGI (converted)): 14.8 µM; growth at 0.01 µM (SNB-19): 93%; growth at 0.01 µM (SF-539): 96%; growth at 0.01 µM (NCI-H322M): 90%; GI50 (RXF 393 [2]; read-out: GI50): 2.58 µM; CC50 (RXF 393 [2]; [15]): 35.6 µM; TGI (RXF 393 [2]; read-out: TGI): 7.69 µM; GI50 (RXF 393 [2]; read-out: pGI50 (converted)): 2.57 µM; CC50 (RXF 393 [2]; [16]): 35.5 µM; TGI (RXF 393 [2]; read-out: pTGI (converted)): 7.76 µM; GI50 (CAKI-1; read-out: GI50): 3.39 µM; CC50 (CAKI-1; [15]): > 100 µM; TGI (CAKI-1; read-out: TGI): 46.8 µM; GI50 (CAKI-1; read-out: pGI50 (converted)): 3.39 µM; CC50 (CAKI-1; [16]): > 100 µM; TGI (CAKI-1; read-out: pTGI (converted)): 46.8 µM; GI50 (A498 [3]; read-out: GI50): 2.83 µM; CC50 (A498 [3]; [15]): 41.3 µM; TGI (A498 [3]; read-out: TGI): 13.7 µM; GI50 (A498 [3]; read-out: pGI50 (converted)): 2.82 µM; CC50 (A498 [3]; [16]): 41.7 µM; TGI (A498 [3]; read-out: pTGI (converted)): 13.8 µM; GI50 (UACC-62 [4]; read-out: GI50): 1.95 µM; CC50 (UACC-62 [4]; [15]): 25.2 µM; TGI (UACC-62 [4]; read-out: TGI): 5.48 µM; GI50 (UACC-62 [4]; read-out: pGI50 (converted)): 1.95 µM; CC50 (UACC-62 [4]; [16]): 25.1 µM; TGI (UACC-62 [4]; read-out: pTGI (converted)): 5.5 µM; GI50 (SF-295; read-out: GI50): 1.45 µM; CC50 (SF-295; [15]): 52.8 µM; TGI (SF-295; read-out: TGI): 11.1 µM; GI50 (SF-295; read-out: pGI50 (converted)): 1.45 µM; CC50 (SF-295; [16]): 52.5 µM; TGI (SF-295; read-out: pTGI (converted)): 11.2 µM; growth at 100 µM (MDA-MB-231): -79%; growth at 100 µM (UO-31): -87%; growth at 100 µM (OVCAR-4): -39%; growth at 100 µM (IGROV-1): -43%; growth at 100 µM (UACC-62 [5]): -81%; growth at 100 µM (UACC-257 [6]): -34%; growth at 100 µM (SK-MEL-5): -64%; growth at 100 µM (SK-MEL-28 [7]): -64%; growth at 100 µM (Malme-3M [8]): -46%; growth at 100 µM (NCI-H226 [9]): -56%; growth at 100 µM (SR): -26%; growth at 1 µM (A498 [10]): 79%; growth at 1 µM (OVCAR-8): 82%; growth at 1 µM (UACC-257 [11]): 98%; growth at 1 µM (MDA-MB-435): 95%; growth at 1 µM (Malme-3M [12]): 104%; growth at 1 µM (HT-29): 89%; growth at 0.1 µM (OVCAR-5): 111%; growth at 0.1 µM (OVCAR-3): 105%; growth at 0.1 µM (SK-MEL-28 [13]): 100%; growth at 0.1 µM (U-251): 96%; growth at 0.01 µM (TK-10): 92%; growth at 0.01 µM (RXF 393 [14]): 97%
